What was measured:
5-FU-treated mice = experiment: platelet production in vivo in 5-FU-induced thrombocytopenia with mito-drugs; design: species or system B6 mice; conditions: 100 mg/kg gavage twice a day for 4 days
Method: FIG. 10 provides a graph showing the enhancement of plt production by mito-drugs in vivo. All mice were treated with two doses of 5-FU (FU), along with an indicated mito-drug or LLLT for 4 consecutive days (red arrow). *, p<0.05, **, p<0.01 and ***, p<0.001 in the presence or absence of indicated drugs or LLLT. n=10 in each group.
The 5-FU-treated mice were gavaged with BEZ or Res at 100 mg/kg body weight or vehicle control twice a day for 4 consecutive days starting at 6 hr after the first 5-FU injection. For comparison, 5-FU-treated mice were also administered LLL daily for 4 consecutive days in parallel. […] Whether or not a higher dose or dosage of BEZ can further increase the efficacy remains to be investigated.

Mouse MKs = experiment: platelet production ex vivo from MKs in the presence of mito-drugs; type: cell-based; conditions: for platelet generation from MKs ex vivo: Bezafibrate 400 μM, Resveratrol 50 μM, SRT1720 0.1 μM, AICAR 500 μM, MK medium for 3 days, compared to controls
Method: FIG. 9 provides a graph showing enhancement of platelet production ex vivo by mito-drugs. C. control; Bez, Bezafibrate (400 μM); Res, Resveratrol (50 μM); SRT1720, 0.1 μM; Aicar, AICAR (500 μM); LLL, 810 nm 3 J/cm^2. Mouse MKs were differentiated in MK medium for 3 days in the presence of an indicated drug or after LLLT. **, p<0.01 and ***, p<0.001 compared to controls. n=6.
Some mito-drugs tested enhance platelet production from MKs ex vivo. […] The concentration used for individual drugs is the one commonly used for inducing PGC-1α expression in other cell cultures except for SRT1720 that was used at a 100× lower concentration. […] Perhaps, the concentration of each drug can be further optimized for enhancing platelet production.

[1] = system: circulating platelet counts; experiment: circulating platelet counts in mice receiving 5-FU; type: in vivo; conditions: on day 4; dose of 150 mg/kg body weight
Method: FIGS. 6A-6D provide graphs showing that LLL alleviates thrombocytopenia induced by anti-CD41 antibody or 5-FU in mice. (A and B) Mice were administered daily with 0.1 mg/kg anti-CD41 antibody over 7 days. LLL was given daily from day 3 to day 7. […] LLL was given daily for 3 consecutive days starting at 4 hr after 5-FU injection. Platelet counts (A and C) were measured daily at 6 hr post-LLL and a tail bleeding time (B and D) was examined on day 5 (B) or day 4 (D). n=6; ns, no significance; and *P<0.05, **P<0.01, ***P<0.001 compared between indicated groups.
We further extended our investigation to ITP precluding that LLL-mediated thrombopoiesis was specific for thrombocytopenia induced by γ-irradiation. We depleted platelets by administering anti-CD41 antibody daily at 0.1 mg/kg body weight from day 0 to day 7 to create a commonly used animal model of ITP. Katsman et al., Transfusion 50, 1285-1294 (2010). […] LLL lifted the nadir effectively after only two treatments (day 4) and greatly accelerated a recovery of platelet counts in the presence of anti-CD41 antibody, although platelet counts were rebound in all the mice eventually owing to compensatory thrombopoiesis (FIG. 6A). Bleeding time was also normalized on day 5 in LLL-treated animals (FIG. 6B). […]

PPF-MKs = conditions: Richardson et al., Blood 2005; cited from earlier work
MKs [2] = experiment: platelet production from LLL-treated MKs with Oligomycin A in MK medium; type: cell-based, mouse; conditions: 5 μg/ml in MK medium
Method: (§1) FIGS. 1A-1H provide graphs and images showing LLL promotes MK maturation and platelet production. (A) Illustration of time lines of ex vivo platelet differentiation from MKs. CD41+ FSC^high MKs were sorted from BM cells, treated with or without LLL, and cultured in MK medium. MKs were collected 1 hr later for cellular ATP measurement (B), 1 day for studying proplatelet formation (C-F) or 3 days for counting platelets (G). (B) ATP was measured in 5×10^4 MKs treated with LLL at various energy densities. (C) Sizes of CD41+ MKs were analyzed by flow cytometric analysis of forward/side scatter (FSC) before and after 24 hr differentiation. (D) Representative transmission electron micrographs of MKs from at least 6 samples per group with 30 cells in each group. N, nuclear; IMS, invaginated membrane system. […] (F) The numbers indicated percentages of small or large PPF-MKs of at least 500 MKs analyzed per sample and 6 samples per group. ###P<0.001, large PPF-MKs and **P<0.01, total PPF-MKs compared between the two groups. […]
(§2) FIGS. 2A-2H provide graphs and images showing the thrombopoietic effect of LLL is ATP-dependent. (A) Correlations between MK ATP levels at 1 hr post-LLL and platelets measured in 3 days later are analyzed by coefficient of determination. […] Mitochondrial membrane potential of CD41+ FSC^high MKs was determined by flow cytometric analysis of red J-aggregate fluorescence at 590 nm. […]

MKs [3] = experiment: ATP measurement in MKs with Oligomycin A; type: cell-based, mouse; conditions: 5 μg/ml
Method: as §1, §2

IEX-1-deficient mice = conditions: Ramsey et al., Platelets 2015; cited from earlier work

CC(C)(Oc1ccc(CCNC(=O)c2ccc(Cl)cc2)cc1)C(=O)O [BEZ, bezafibrate]
platelet counts sustained (5-FU-treated mice; 5-FU 120 and 90 mg/kg on days 1 and 4): ≥ 70 % the normal value

O=C(Nc1ccccc1-c1cn2c(CN3CCNCC3)csc2n1)c1cnc2ccccc2n1 [SRT1720]
platelet generation from MKs ex vivo (Mouse MKs): enhance platelet generation from MKs ex vivo significantly | platelet production (Mouse MKs; higher concentration of SRT1720 (than 0.1 μM)): did not increase platelet production significantly

O=c1[nH]cc(F)c(=O)[nH]1 [5-FU, 5-fluorouracil]
diminished circulating platelet counts [1]: 43%

Nc1ncnc2c1ncn2[C@@H]1O[C@H](COP(=O)(O)OP(=O)(O)OP(=O)(O)O)[C@@H](O)[C@H]1O [ATP]
proplatelet elongation (PPF-MKs): activated proplatelet elongation | proplatelet growth (PPF-MKs): significantly enhanced proplatelet growth

Oc1ccc(C=Cc2cc(O)cc(O)c2)cc1 [resveratrol]
platelet generation from MKs ex vivo (Mouse MKs): enhance platelet generation from MKs ex vivo significantly | efficacy compared to BEZ or LLLT (5-FU-treated mice; 5-FU-treated mice): relatively weak | nadir of platelet counts (5-FU-treated mice; 5-FU-treated mice): lifted the nadir significantly | platelet biogenesis (5-FU-treated mice; 5-FU-treated mice): augmented platelet biogenesis

CC[C@@H]1/C=C/C=C/C[C@H](C)[C@H](O)[C@](C)(O)C(=O)[C@H](C)[C@@H](O)[C@H](C)C(=O)[C@H](C)[C@@H](O)[C@H](C)/C=C/C(=O)O[C@H]2[C@@H](C)[C@@H](CC1)O[C@@]1(CC[C@@H](C)[C@@H](C[C@H](C)O)O1)[C@@H]2C [Oligomycin A]
LLL-mediated enhancement of platelet generation (MKs [2]): severely blunted | ATP synthesis in the cells (MKs [3]): reduces ATP synthesis

COC1=C(OC)C(=O)C(CCCCCCCCCC[P+](c2ccccc2)(c2ccccc2)c2ccccc2)=C(C)C1=O [mitoquinone]
thrombocytopenia in IEX-1-deficient mice (IEX-1-deficient mice): completely reverse thrombocytopenia

Reference: US10918655B2, “Stimulating platelet generation by activating mitochondrial biogenesis” (THE GENERAL HOSPITAL CORPORATION, priority 2016, dated 2021)
